Usually Kd stands for the equilibrium constant for the complex coming apart. Low values mean tighter binding, high ones weaker binding.

The target in assay [1] is T1, Cyp20-3 (Arabidopsis thaliana, UniProt P34791, C206S).
T1 construct: recombinant Cyp20-3 C129S variant, His6-tag not cleaved
Briefly: PPIase activity assay (chymotrypsin-coupled), […] 12-OPDA. It counts as biochemical.

In assay [2] the target is T2, Cyp20-3 (Arabidopsis thaliana, UniProt P34791).
T2 construct: recombinant Cyp20-3 WT, His6-tag not cleaved
T2 sequence (P34791 78-260): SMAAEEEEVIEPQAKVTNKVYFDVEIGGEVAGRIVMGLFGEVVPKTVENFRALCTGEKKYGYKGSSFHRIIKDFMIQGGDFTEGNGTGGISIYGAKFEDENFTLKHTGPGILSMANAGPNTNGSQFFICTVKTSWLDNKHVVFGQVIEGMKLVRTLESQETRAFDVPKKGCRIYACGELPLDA
Briefly: ITC (single-site fit, poor fit noted); intrinsic fluorescence quenching; PPIase activity. The class given is binding.

Assay [3] concerns the target T3, Cyp20-3 (Arabidopsis thaliana, UniProt P34791, C248S).
T3 construct: recombinant Cyp20-3 C171S variant, His6-tag not cleaved
Briefly: ITC (single-site fit, poor fit noted). The class given is binding.

T3 sequence (P34791 78-260 C248S): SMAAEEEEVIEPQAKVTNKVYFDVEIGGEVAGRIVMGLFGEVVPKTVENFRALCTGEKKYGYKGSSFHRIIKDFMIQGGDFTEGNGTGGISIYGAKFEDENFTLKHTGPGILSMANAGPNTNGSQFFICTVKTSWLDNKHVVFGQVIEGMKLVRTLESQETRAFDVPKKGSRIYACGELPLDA
T1 sequence (P34791 78-260 C206S): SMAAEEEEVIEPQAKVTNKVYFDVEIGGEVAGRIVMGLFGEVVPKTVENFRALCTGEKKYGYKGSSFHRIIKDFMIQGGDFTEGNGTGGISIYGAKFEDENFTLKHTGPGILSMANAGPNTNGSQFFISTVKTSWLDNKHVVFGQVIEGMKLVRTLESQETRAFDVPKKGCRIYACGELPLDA

`CC/C=C\C[C@@H]1C(=O)C=C[C@@H]1CCCCCCCC(=O)O` [12-OPDA, 12-oxophytodienoic acid]: the “PPIase activity assay (chymotrypsin-coupled), 26 μM 12-OPDA” value in assay [1] is 12-OPDA stimulated the activity of oxidized Cyp20-3 WT and C129S to a similar extent. For the same compound, the Kd in assay [2] is 35.7 ± 9 µM; in assay [3] it was 26 ± 8 µM.

The values above are taken from PMC8003295, “The In Vitro Interaction of 12-Oxophytodienoic Acid and Related Conjugated Carbonyl Compounds with Thiol Antioxidants” (Biomolecules, 2021).
